Literature values as cited in US20160206641A1, “RAPIDLY-[…] FILM FORMULATION OF WATER SOLUBLE […] GLYCOSIDE FOR THE TREATMENT OF […] DISEASE” (LUMINUS BIOSCIENCES INC., priority 2013, published 2016).
Values after ≈ are worked out from the molar mass of the structure shown.

For `C[C@@H]1O[C@@H](O[C@H]2C[C@@H](O)[C@]3(CO)[C@H]4[C@H](O)C[C@]5(C)[C@@H](C6=CC(=O)OC6)CC[C@]5(O)[C@@H]4CC[C@]3(O)C2)[C@H](O)[C@H](O)[C@H]1O` [ouabain, 1β,3β,5β,11α,14,19-Hexahydroxycard-20(22)-enolide 3-(6-deoxy-α-L-mannopyranoside)], the “solubility in cold water” value (cold water) is given as 10000 µg/mL (≈ 17.1 mM) and the “solubility in hot water” value (hot water) is given as “more than 50 mg/ml”.
